Experimental findings from US20110081315A1, “NOVEL MACROCYCLIC INHIBITORS OF HEPATITIS C VIRUS REPLICATION” (INTERMUNE, INC., priority 2009, published 2011) are described below.

For test [1], the target named is NS3/NS4 complexes (Hepatitis C virus genotype 1a, UniProt P27958). Briefly: NS3/NS4 inhibition assay (IC50). The format is biochemical. To be noted: NS3/NS4 activity; 23° C., 25 μM NS4A peptide. A digest of the protocol:
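Read-outs are IC50 for inhibition of the NS3/NS4 complex and EC50 in an HCV replicon system. Biochemical runs use 23° C. and a 50 mM Tris-HCl (pH 7.5) buffer with 15% glycerol, 10 mM DTT, 0.6 mM LDAO and 25 μM NS4A peptide.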

Test [2] concerns hepatitis C replicon. The experiment in a line: hepatitis C replicon EC50 assay. The format is cell-based. To be noted: Hepatitis C virus. A digest of the protocol:
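Inhibitory concentrations against the NS3/NS4 complex are determined at 23° C. in pH 7.5 buffer (50 mM Tris-HCl) containing 25 μM NS4A peptide, 0.6 mM lauryldimethylamine oxide, 10 mM dithiothreitol and 15% glycerol. EC50 values derive from the hepatitis C replicon assay.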
(Replicon systems follow genome replication, usually without infectious particles.)

The mark [3] stands for this setting: hepatitis C replicon, read-out: EC50.

pEC50, pIC50: −log10 of the molar value. Read-outs that look alike come from different tables or passages of the source.

NS3/NS4 complexes, sequence (P27958 1027-1657, one chain of several): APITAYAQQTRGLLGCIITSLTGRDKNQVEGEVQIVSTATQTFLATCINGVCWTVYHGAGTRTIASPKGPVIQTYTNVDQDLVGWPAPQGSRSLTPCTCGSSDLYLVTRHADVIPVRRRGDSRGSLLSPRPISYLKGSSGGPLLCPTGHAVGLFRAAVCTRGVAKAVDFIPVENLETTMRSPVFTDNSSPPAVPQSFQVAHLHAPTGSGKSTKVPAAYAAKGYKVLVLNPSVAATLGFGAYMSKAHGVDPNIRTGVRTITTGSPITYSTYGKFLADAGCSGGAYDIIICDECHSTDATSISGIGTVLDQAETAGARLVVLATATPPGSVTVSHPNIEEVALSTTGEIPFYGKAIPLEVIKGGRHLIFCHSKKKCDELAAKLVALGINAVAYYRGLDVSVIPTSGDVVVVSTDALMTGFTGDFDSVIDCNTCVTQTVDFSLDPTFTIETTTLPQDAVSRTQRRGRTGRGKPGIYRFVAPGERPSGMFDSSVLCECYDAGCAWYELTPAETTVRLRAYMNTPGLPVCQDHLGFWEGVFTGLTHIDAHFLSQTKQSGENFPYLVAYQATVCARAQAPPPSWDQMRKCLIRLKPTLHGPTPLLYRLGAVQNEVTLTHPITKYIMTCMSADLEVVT

For the compound `CC(C)n1c(O[C@@H]2C[C@H]3C(=O)N[C@]4(C(=O)NS(=O)(=O)N(C)C)C[C@H]4/C=C\CCCCC[C@H](NC(=O)OC(C)(C)C)C(=O)N3C2)nc2c(-c3nc(Cc4cc(F)cc(F)c4)cs3)cccc21` [Compound 1756], the pIC50 – broadly, −log10 of the IC50, conventionally taken in molar units – in test [1] is over 8.00. Further, in test [2] (setting [3]), the pEC50 (commonly −log10 of the EC50, conventionally taken in molar units) was 7.00 to 8.00.
Compound `CCn1c(O[C@@H]2C[C@H]3C(=O)N[C@]4(C(=O)NS(=O)(=O)N(C)C)C[C@H]4/C=C\CCCCC[C@H](NC(=O)OC(C)(C)C)C(=O)N3C2)nc2c(-c3nc(C(C)C)c(C)o3)cccc21` [Compound 1204] showed a pIC50 in test [1] of over 8.00. In test [2] (setting [3]), the pEC50 was over 8.00.
`CC1(S(=O)(=O)NC(=O)[C@@]23C[C@H]2/C=C\CCCCC[C@H](Nc2ccccc2)C(=O)N2C[C@H](n4cc(-c5ccccc5)nn4)C[C@H]2C(=O)N3)CC1` [Compound 1504] had a pIC50 in test [1] of 7.00 to 8.00. The pEC50 in test [2] (setting [3]) was under 7.00.
For `CC(C)n1c(O[C@@H]2C[C@H]3C(=O)N[C@]4(C(=O)NS(=O)(=O)C5(C)CC5)C[C@H]4/C=C\CCCCC[C@H](NC(=O)OC(C)(C)C)C(=O)N3C2)nc2c(-c3csc(-c4ccccc4)n3)cccc21` [Compound 1701], in that order: over 8.00 and 7.00 to 8.00.
`CC(C)n1c(O[C@@H]2C[C@H]3C(=O)N[C@]4(C(=O)NS(=O)(=O)N(C)C)C[C@H]4/C=C\CCCCC[C@H](NC(=O)OC(C)(C)C)C(=O)N3C2)nc2c(N)cccc21` [Compound 1419] gave a pIC50 in test [1] of over 8.00. In test [2] (setting [3]), the pEC50 was over 8.00.
Turning to `COc1ccc2c(O[C@@H]3C[C@H]4C(=O)N[C@]5(C(=O)NS(=O)(=O)C6(C)CC6)C[C@H]5/C=C\CCCCC[C@H](Nc5cccc(C(=O)N6CCN(c7ccc(C)cc7)CC6)c5)C(=O)N4C3)cc(-c3nc(C(C)C)cs3)nc2c1C` [Compound 123], the pIC50 in test [1] is over 8.00. Further, the pEC50 in test [2] (setting [3]) is 7.00 to 8.00.
For `Cc1oc(-c2cccc3c2nc(O[C@@H]2C[C@H]4C(=O)N[C@]5(C(=O)NS(=O)(=O)C6(C)CC6)C[C@H]5/C=C\CCCCC[C@H](NC(=O)OC(C)(C)C)C(=O)N4C2)n3C(C)C)nc1Cc1ccccc1` [Compound 1215], in that order: over 8.00 and over 8.00.
Consider `CC(C)n1c(O[C@@H]2C[C@H]3C(=O)N[C@]4(C(=O)NS(=O)(=O)C5(C)CC5)C[C@H]4/C=C\CCCCC[C@H](NC(=O)OC(C)(C)C)C(=O)N3C2)nc2c(-c3nc(Cc4cccc(Cl)c4)cs3)cccc21` [Compound 1724], for which the pIC50 in test [1] was over 8.00. For the same compound, the pEC50 in test [2] (setting [3]) is 7.00 to 8.00.
For `CC(C)n1c(O[C@@H]2C[C@H]3C(=O)N[C@]4(C(=O)NS(=O)(=O)C5(C)CC5)C[C@H]4/C=C\CCCCC[C@H](NC(=O)OC(C)(C)C)C(=O)N3C2)nc2c(-c3csc(N4CCCCC4)n3)cccc21` [Compound 1706], in that order: over 8.00 and over 8.00.
For `COc1ccc2c(O[C@@H]3C[C@H]4C(=O)N[C@]5(C(=O)NS(=O)(=O)C6(C)CC6)C[C@H]5/C=C\CCCCC[C@H](Nc5cccc(C(=O)N6CC(C)OC(C)C6)c5)C(=O)N4C3)cc(-c3nc(C(C)C)cs3)nc2c1C` (stereo partly shown) [Compound 106], in that order: over 8.00 and over 8.00.
In the same order, the values of `CC(C)n1c(O[C@@H]2C[C@H]3C(=O)N[C@]4(C(=O)NS(=O)(=O)C5(C)CC5)C[C@H]4/C=C\CCCCC[C@H](Nc4ccccc4)C(=O)N3C2)nc2c(-c3ccc(F)c(C(F)(F)F)c3)cccc21` [Compound 246] are over 8.00 and under 7.00.
In turn, `CC(C)n1c(O[C@@H]2C[C@H]3C(=O)N[C@]4(C(=O)NS(=O)(=O)C5(C)CC5)C[C@H]4/C=C\CCCCC[C@H](NC(=O)OC(C)(C)C)C(=O)N3C2)nc2c(-c3nc(Cc4ccc(F)c(F)c4)cs3)cccc21` [Compound 1721] showed a pIC50 in test [1] of over 8.00. Besides, in test [2] (setting [3]), the pEC50 is over 8.00.
Turning to `CC1(S(=O)(=O)NC(=O)[C@@]23C[C@H]2/C=C\CCCCC[C@H](Nc2ccccc2)C(=O)N2C[C@H](n4nnc(-c5cccc(-c6nccs6)c5)n4)C[C@H]2C(=O)N3)CC1` [Compound 805], in test [1], the pIC50 was over 8.00. The negative logarithm of the EC50 (pEC50) in test [2] (setting [3]) is under 7.00.
In the same order, the values of `CC(C)c1cccc2c1nc(O[C@@H]1C[C@H]3C(=O)N[C@]4(C(=O)NS(=O)(=O)N(C)C)C[C@H]4/C=C\CCCCC[C@H](NC(=O)OC(C)(C)C)C(=O)N3C1)n2C(C)C` [Compound 288] are over 8.00 and over 8.00.
The compound `CC(C)n1c(O[C@@H]2C[C@H]3C(=O)N[C@]4(C(=O)NS(=O)(=O)C5(C)CC5)C[C@H]4/C=C\CCCCC[C@H](Nc4ccccc4)C(=O)N3C2)nc2c(-c3ccc(F)c(F)c3)cccc21` [Compound 243] showed a pIC50 in test [1] of over 8.00. Moreover, in test [2] (setting [3]), the pEC50 is under 7.00.
In the same order, the values of `CC(C)n1c(O[C@@H]2C[C@H]3C(=O)N[C@]4(C(=O)NS(=O)(=O)C5(C)CC5)C[C@H]4/C=C\CCCCC[C@H](Nc4ccccc4)C(=O)N3C2)nc2c(-c3ccc(F)cc3)cccc21` [Compound 238] are over 8.00 and 7.00 to 8.00.
In test [1], `CC(C)n1c(O[C@@H]2C[C@H]3C(=O)N[C@]4(C(=O)NS(=O)(=O)C5(C)CC5)C[C@H]4/C=C\CCCCC[C@H](Nc4ccccc4)C(=O)N3C2)nc2c(Cl)cccc21` [Compound 263] gave a pIC50 of over 8.00. Also, the pEC50 in test [2] (setting [3]) was 7.00 to 8.00.
In the same order, the values of `CC(C)(C)OC(=O)N[C@H]1CCCCC/C=C\[C@@H]2C[C@@]2(C(=O)NS(=O)(=O)C2(C)CC2)NC(=O)[C@@H]2C[C@@H](Oc3ccc4ncn(-c5ccccc5)c4c3)CN2C1=O` [Compound 299] are over 8.00 and 7.00 to 8.00.
In test [1], `CC(C)n1c(O[C@@H]2C[C@H]3C(=O)N[C@]4(C(=O)NS(=O)(=O)C5(C)CC5)C[C@H]4/C=C\CCCCC[C@H](NC(=O)N4CCCC4)C(=O)N3C2)nc2c(-c3nc(-c4ccccc4)cs3)cccc21` [Compound 1732] gave a pIC50 of over 8.00. Besides, in test [2] (setting [3]), the pEC50 was over 8.00.
On to `CC(C)n1c(O[C@@H]2C[C@H]3C(=O)N[C@]4(C(=O)NS(=O)(=O)N(C)C)C[C@H]4/C=C\CCCCC[C@H](NC(=O)OC(C)(C)C)C(=O)N3C2)nc2c(C(=O)NCc3nccs3)cccc21` [Compound 1222], for which, in test [1], the pIC50 is over 8.00. For the same compound, the pEC50 in test [2] (setting [3]) is over 8.00.
`CC(C)n1c(O[C@@H]2C[C@H]3C(=O)N[C@]4(C(=O)NS(=O)(=O)C5(C)CC5)C[C@H]4/C=C\CCCCC[C@H](Nc4ccccc4)C(=O)N3C2)nc2c(C(F)(F)F)cccc21` [Compound 204] had a pIC50 in test [1] of over 8.00. Moreover, the pEC50 in test [2] (setting [3]) is 7.00 to 8.00.
The compound `CC(C)n1c(O[C@@H]2C[C@H]3C(=O)N[C@]4(C(=O)NS(=O)(=O)C5(C)CC5)C[C@H]4/C=C\CCCCC[C@H](Nc4ccccc4)C(=O)N3C2)nc2c(NC(=O)Nc3ccccc3)cccc21` [Compound 287] gave a pIC50 in test [1] of over 8.00. This compound showed a pEC50 in test [2] of 7.00 to 8.00.
On to `Cc1csc(-c2cccc3c2nc(O[C@@H]2C[C@H]4C(=O)N[C@]5(C(=O)NS(=O)(=O)N(C)C)C[C@H]5/C=C\CCCCC[C@H](NC(=O)OC(C)(C)C)C(=O)N4C2)n3C(C)C)n1` [Compound 228], for which the pIC50 in test [1] was over 8.00. The pEC50 in test [2] (setting [3]) was over 8.00.
With `Cc1cccc(Cc2csc(-c3cccc4c3nc(O[C@@H]3C[C@H]5C(=O)N[C@]6(C(=O)NS(=O)(=O)C7(C)CC7)C[C@H]6/C=C\CCCCC[C@H](NC(=O)OC(C)(C)C)C(=O)N5C3)n4C(C)C)n2)c1` [Compound 1718], in test [1], the pIC50 is over 8.00. The pEC50 in test [2] (setting [3]) is over 8.00.
With `Cn1cnc2cc(O[C@@H]3C[C@H]4C(=O)N[C@]5(C(=O)NS(=O)(=O)C6(C)CC6)C[C@H]5/C=C\CCCCC[C@H](NC(=O)OC(C)(C)C)C(=O)N4C3)ccc21` [Compound 295], the pIC50 in test [1] was over 8.00. For the same compound, the pEC50 in test [2] (setting [3]) is under 7.00.
`Cc1sc(-c2cccc3c2nc(O[C@@H]2C[C@H]4C(=O)N[C@]5(C(=O)NS(=O)(=O)N(C)C)C[C@H]5/C=C\CCCCC[C@H](NC(=O)OC(C)(C)C)C(=O)N4C2)n3C(C)C)nc1Cc1ccccc1` [Compound 1216]: the pIC50 in test [1] was over 8.00. Moreover, in test [2] (setting [3]), the pEC50 was over 8.00.
In test [1], `CC(C)n1c(O[C@@H]2C[C@H]3C(=O)N[C@]4(C(=O)NS(=O)(=O)N(C)C)C[C@H]4/C=C\CCCCC[C@H](NC(=O)OC(C)(C)C)C(=O)N3C2)nc2c(-c3nc4c(s3)CCCC4(C)C)cccc21` [Compound 1775] gave a pIC50 of over 8.00. For the same compound, in test [2] (setting [3]), the pEC50 is 7.00 to 8.00.
The compound `COc1ccc(-c2nnn([C@@H]3C[C@H]4C(=O)N[C@]5(C(=O)NS(=O)(=O)C6(C)CC6)C[C@H]5/C=C\CCCCC[C@H](Nc5ccccc5)C(=O)N4C3)n2)cc1` [Compound 804] had a pIC50 in test [1] of over 8.00. For the same compound, in test [2] (setting [3]), the pEC50 was 7.00 to 8.00.
In the same order, the values of `CN(C)S(=O)(=O)NC(=O)[C@@]12C[C@H]1/C=C\CCCCC[C@H](NC(=O)OC(C)(C)C)C(=O)N1C[C@H](Oc3nc4ccccc4nc3-c3ccc(F)cc3)C[C@H]1C(=O)N2` [Compound 308] are over 8.00 and 7.00 to 8.00.
For `CC(C)n1c(O[C@@H]2C[C@H]3C(=O)N[C@]4(C(=O)NS(=O)(=O)N(C)C)C[C@H]4/C=C\CCCCC[C@H](NC(=O)OC(C)(C)C)C(=O)N3C2)nc2c(C(N)=O)cccc21` [Compound 277], in that order: over 8.00 and over 8.00.
For `COc1ccc2c(O[C@@H]3C[C@H]4C(=O)N[C@]5(C(=O)NS(=O)(=O)C6(C)CC6)C[C@H]5/C=C\CCCCC[C@H](Nc5cccc(C(=O)N6CCN(c7ccccc7C)CC6)c5)C(=O)N4C3)cc(-c3nc(C(C)C)cs3)nc2c1C` [Compound 118], in that order: over 8.00 and 7.00 to 8.00.
Consider `CN(C)S(=O)(=O)NC(=O)[C@@]12C[C@H]1/C=C\CCCCC[C@H](NC(=O)OC(C)(C)C)C(=O)N1C[C@H](Oc3ccc4c(ccn4C)c3)C[C@H]1C(=O)N2` [Compound 701], for which the pIC50 in test [1] is over 8.00. Moreover, the pEC50 in test [2] (setting [3]) was under 7.00.
